Data set [1] is described as follows: DITEST-001 study: serum testosterone undecanoate and aqueous/lipid fractions of serum. Type of data set: in vivo, human. An excerpt: There is an unmet need for a native oral testosterone therapy for men with androgen (testosterone) deficiency. Current therapy for most hypogonadal patients in Europe and the United States of America (USA) is with either intramuscular injections or gels. These therapies have the disadvantages of pain with injections, skin reactions, and potential spread to partners with gels. At the time this study was designed, there was only one oral formulation of testosterone undecanoate on the market in the UK, but at that time this was not approved in the USA. DITEST is a novel formulation of native testosterone. […] Testosterone undecanoate is considered mainly absorbed through intestinal lymphatics, along with dietary lipids, whilst DITEST was formulated to permit absorption without the requirement for dietary lipids. To examine the proportions absorbed through lymphatics, the aqueous and lipid fractions of serum were separated for the measurement of serum testosterone. Since this was a first-in-human study, participants were closely monitored as inpatients during dosing. […]
(§1) Twelve participants were to be recruited into each cohort (note: participants from Cohort 1 could be entered into Cohort 2 after a washout period of at least 3 months between cohorts). Participants were not recruited into Cohort 2 until the results of participants treated in Cohort 1 had been evaluated (this review determined if the intended dose for Cohort 2 needed to be adjusted). […]
(§2) • Testosterone serum concentrations after administration of a single dose of 120 mg or 200 mg DITEST and 80 mg testosterone undecanoate in the fed state, as measured by the primary PK parameters of maximum serum concentration (Cmax) and the area under the curve from 0 to 10 hours (AUC0-10). Secondary Endpoints • Testosterone serum concentrations after administration of a single 200 mg dose of DITEST in the fed and fasted states, as measured by the primary PK parameters of Cmax and AUC0-10. • AEs observed throughout the study. • Changes during the study in vital signs, ECG and safety laboratory data. […]

Data set [2] can be described thus: DITEST-001 single dose cross-over study: serum total testosterone pharmacokinetics. Format: in vivo, human. To be noted: DITEST both doses fed and 200 mg fasted; testosterone undecanoate fed; hypogonadal men. As for the experimental part: (§3) The study was conducted in male participants from 18 to 80 years of age requiring testosterone replacement therapy for primary or secondary hypogonadism. The study was a randomized, active control, single dose, 2-way cross-over study in 2 cohorts. In each cohort participants who met the entry criteria at screening and baseline were randomized to one of 2 sequences:
(§4) Cohort 1: single dose of 120 mg (3×40 mg) DITEST followed by a single dose of 80 mg (2×40 mg) testosterone undecanoate or a single dose of 80 mg (2×40 mg) testosterone undecanoate followed by a single dose of 120 mg (3×40 mg) DITEST. The 2 treatments were separated by a minimum of a 7-day washout period, with both treatments given in the fed state.
(§5) Cohort 2: single dose of 200 mg (5×40 mg) DITEST (fed) followed by a single dose of 200 mg DITEST (fasted) or a single dose of 200 mg DITEST (fasted) followed by a single dose of 200 mg (5×40 mg) DITEST (fed). The 2 treatments were separated by a minimum of a 7-day washout period.
as §1

Data set [3] can be described thus: DITEST-001 study: safety (TEAEs, SAEs, ECG, vital signs). Format: in vivo, human. As for the experimental part:
as §3, §4, §5
Twelve participants were to be recruited into each cohort (note: participants from Cohort 1 could be entered into Cohort 2 after a washout period of at least 3 months between cohorts). Participants were not recruited into Cohort 2 until the results of participants treated in Cohort 1 had been evaluated (this review determined if the intended dose for Cohort 2 needed to be adjusted). No other testosterone treatments were allowed for the duration of each cohort (including the washout periods) (note: participants who entered Cohort 1 were able to revert to their usual testosterone treatment, if applicable, on completion of this cohort and prior to screening for Cohort 2, if applicable). Each participant was required to attend the study site for a minimum of either 4 or 5 visits per cohort: a screening assessment, an evaluation of baseline testosterone levels after the washout period from the participant's current medication (only for participants currently on testosterone replacement therapy), both dosing days, and a follow-up visit at the end of the study. On each dosing day, participants were to remain in the study site and PK blood and saliva samples were taken at −0.5, −0.25 (Cohort 1 only), 0, 0.5, 1, 1.5, 2, 2.5, 3, 3.5, 4, 4.5, 5, 5.5, 6, 7, 8, and 10 hours. Further PK blood and saliva samples could be taken at up to 2 additional timepoints per period if deemed necessary based on emerging data. […] If necessary, for practical reasons, participants could stay overnight at the study site or at a nearby hotel the night before and/or the night after the dosing days.
as §2, with “data. Exploratory Endpoints: • To assess the levels of testosterone and DHT in serum. • To assess the levels of testosterone and testosterone undecanoate in the lipid and aqueous fractions of blood (testosterone undecanoate only measured in participants in the testosterone undecanoate arm). • To assess the levels of intact testosterone undecanoate in serum for participants who received testosterone undecanoate. • To compare testosterone concentrations in venous and capillary blood samples collected using the Mitra microsampling device with serum concentrations. • To compare the concentrations of testosterone in saliva with serum concentrations. • To evaluate the concentrations of androstenedione in saliva Statistical Methods” for “data.”

The conditions of data set [4]: cited from earlier work.

The values that follow come from US12514862B2, “Testosterone containing pharmaceutical composition” (Diurnal Limited, priority 2020, dated 2026).

For orientation: Aqueous Solubility means how much of the substance goes into solution per volume.

Some results are limits rather than exact numbers.

`CCCCCCCCCCC(=O)O[C@H]1CC[C@H]2[C@@H]3CCC4=CC(=O)CC[C@]4(C)[C@H]3CC[C@]12C` [Testosterone Undecanoate, testosterone undecanoate]: the “Lipid fraction of serum testosterone undecanoate as part of total serum measurement of testosterone undecanoate” value in data set [1] (after 80 mg testosterone undecanoate) is on record as “over half”. Moreover, in data set [1] (after dosing with 80 mg testosterone undecanoate), the “Serum testosterone undecanoate levels relative to the testosterone levels” value is 10 fold. The “Lipid fraction of testosterone relative to the serum concentration” value in data set [1] (single oral dose) is recorded as “approximately 1/10”. Moreover, the “Serum testosterone levels following dosing” value in data set [2] is given as “within the physiological range”. Moreover, the “QT prolongation, reported as related to study intervention” value in data set [3] (Cohort 1: testosterone undecanoate 80 mg and DITEST 120 mg) is listed as “One participant had QT prolongation”. Also, the “Total number of TEAEs reported” value in data set [3] (DITEST 120 mg fed, 200 mg fed and 200 mg fasted, testosterone undecanoate 80 mg fed) stood at 8. In addition, in data set [3] (single doses), the “Mean change in diastolic blood pressure” value is listed as 1.5 mmHg, the “Mean change in heart rate” value amounted to 8.5 bpm, the “Mean change in systolic blood pressure” value is listed as 12.8 mmHg and the “SAEs or severe AEs” value was “One SAE”.

Regarding `C[C@]12CC[C@H]3[C@@H](CCC4=CC(=O)CC[C@@]43C)[C@@H]1CC[C@@H]2O` [Testosterone, (8R,9S,10R,13S,14S,17S)-17-hydroxy-10,13-dimethyl-1,2,6,7,8,9,11,12,14,15,16,17-dodecahydrocyclopent a[a]phenanthren-3-one], in data set [4] ((wt/vol) at 20° C.), the “Non-aqueous Solubility, Alcohol” value is recorded as 1 in 5 parts; the “Non-aqueous Solubility, Chloroform” value is 1 in 2 parts; the “Non-aqueous Solubility, Dehydrated alcohol” value is listed as 1 in 6 parts; the “Non-aqueous Solubility, Dioxane” value is on record as “soluble”. For the same compound, in data set [4] ((wt/vol) at 20° C.), the “Non-aqueous Solubility, Ether” value is recorded as 1 in 100 parts; the “Non-aqueous Solubility, Ethyl oleate” value is given as “slightly soluble”; the “Non-aqueous Solubility, Vegetable oils” value was “soluble”. Further, in data set [4] (at 20° C. in water), the “Aqueous Solubility” value is <1 mg/mL (insoluble) at 20 °C in water.
